Results reported in PubChem BioAssay (NCI).
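Compound exposure: 48 hours, 5 concentrations, 96-well plates. Abbreviation: GI50, concentration required for 50% inhibition of growth. The concentration for full growth arrest is given as TGI.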

Legend:
Assay in all cases: DTP human tumour cell line panel, 48 h
786-0 renal = system: 786-0 renal
A498 renal = system: A498 renal
A549 NSCLC = system: A549 NSCLC
ACHN renal = system: ACHN renal
BT-549 breast = system: BT-549 breast
CAKI-1 renal = system: CAKI-1 renal
CCRF-CEM leukemia = system: CCRF-CEM leukemia
COLO 205 colon = system: COLO 205 colon
DU-145 prostate = system: DU-145 prostate
HCC-2998 colon = system: HCC-2998 colon
HCT-116 colon = system: HCT-116 colon
HCT-15 colon = system: HCT-15 colon
HL-60(TB) leukemia = system: HL-60(TB) leukemia
HOP-62 NSCLC = system: HOP-62 NSCLC
HS 578T breast = system: HS 578T breast
HT29 colon = system: HT29 colon
IGROV1 ovarian = system: IGROV1 ovarian
K-562 leukemia = system: K-562 leukemia
KM12 colon = system: KM12 colon
M14 melanoma = system: M14 melanoma
MALME-3M melanoma = system: MALME-3M melanoma
MCF7 breast = system: MCF7 breast
MDA-MB-231 breast = system: MDA-MB-231 breast
MDA-MB-435 = system: MDA-MB-435
MOLT-4 leukemia = system: MOLT-4 leukemia
NCI-H23 lung = system: NCI-H23 lung
NCI-H460 lung = system: NCI-H460 lung
NCI-H522 lung = system: NCI-H522 lung
NCI/ADR-RES ovarian = system: NCI/ADR-RES ovarian
OVCAR-3 ovarian = system: OVCAR-3 ovarian
OVCAR-4 ovarian = system: OVCAR-4 ovarian
OVCAR-5 ovarian = system: OVCAR-5 ovarian
OVCAR-8 ovarian = system: OVCAR-8 ovarian
PC-3 prostate = system: PC-3 prostate
RPMI-8226 leukemia = system: RPMI-8226 leukemia
RXF 393 renal = system: RXF 393 renal
SF-268 CNS = system: SF-268 CNS
SF-295 CNS = system: SF-295 CNS
SF-539 CNS = system: SF-539 CNS
SK-MEL-28 melanoma = system: SK-MEL-28 melanoma
SK-MEL-5 melanoma = system: SK-MEL-5 melanoma
SK-OV-3 ovarian = system: SK-OV-3 ovarian
SN12C renal = system: SN12C renal
SNB-19 CNS = system: SNB-19 CNS
SNB-75 CNS = system: SNB-75 CNS
SR leukemia = system: SR leukemia
SW-620 colon = system: SW-620 colon
T-47D breast = system: T-47D breast
TK-10 renal = system: TK-10 renal
U251 CNS = system: U251 CNS
UACC-257 melanoma = system: UACC-257 melanoma
UACC-62 melanoma = system: UACC-62 melanoma
UO-31 renal = system: UO-31 renal

**Q.** For COc1ccc(-c2cc(/C=C/C(=O)c3ccc(OC)c(OC)c3)[nH]n2)cc1, which GI50 (786-0 renal) is on record?
**A.** 1600 nM

**Q.** And the TGI (786-0 renal)?
**A.** 3090 nM

**Q.** And the GI50 (A498 renal)?
**A.** 1420 nM

**Q.** What about the TGI (A498 renal) of the same molecule?
**A.** 3550 nM

**Q.** And the GI50 (A549 NSCLC)?
**A.** 1880 nM

**Q.** What about the TGI (A549 NSCLC) of the same molecule?
**A.** 5950 nM

**Q.** What about the GI50 (ACHN renal) of the same molecule?
**A.** 1680 nM

**Q.** And the TGI (ACHN renal)?
**A.** 3830 nM

**Q.** And the GI50 (BT-549 breast)?
**A.** 1680 nM

**Q.** And the TGI (BT-549 breast)?
**A.** 3530 nM

**Q.** And the GI50 (CAKI-1 renal)?
**A.** 1550 nM

**Q.** And the TGI (CAKI-1 renal)?
**A.** 3520 nM

**Q.** And the GI50 (CCRF-CEM leukemia)?
**A.** 1340 nM

**Q.** What about the TGI (CCRF-CEM leukemia) of the same molecule?
**A.** 4140 nM

**Q.** And the GI50 (COLO 205 colon)?
**A.** 1760 nM

**Q.** What about the TGI (COLO 205 colon) of the same molecule?
**A.** 3300 nM

**Q.** What about the GI50 (DU-145 prostate) of the same molecule?
**A.** 1400 nM

**Q.** And the TGI (DU-145 prostate)?
**A.** 2810 nM

**Q.** And the GI50 (HCC-2998 colon)?
**A.** 2020 nM

**Q.** And the TGI (HCC-2998 colon)?
**A.** 3970 nM

**Q.** And the GI50 (HCT-116 colon)?
**A.** 1010 nM

**Q.** What about the TGI (HCT-116 colon) of the same molecule?
**A.** 2480 nM

**Q.** And the GI50 (HCT-15 colon)?
**A.** 1350 nM

**Q.** And the TGI (HCT-15 colon)?
**A.** 3560 nM

**Q.** And the GI50 (HL-60(TB) leukemia)?
**A.** 2180 nM

**Q.** And the TGI (HL-60(TB) leukemia)?
**A.** 6400 nM

**Q.** And the GI50 (HOP-62 NSCLC)?
**A.** 2350 nM

**Q.** And the TGI (HOP-62 NSCLC)?
**A.** 6170 nM

**Q.** And the GI50 (HS 578T breast)?
**A.** 3380 nM

**Q.** What about the TGI (HS 578T breast) of the same molecule?
**A.** 29000 nM

**Q.** What about the GI50 (HT29 colon) of the same molecule?
**A.** 1550 nM

**Q.** What about the TGI (HT29 colon) of the same molecule?
**A.** 3450 nM

**Q.** What about the GI50 (IGROV1 ovarian) of the same molecule?
**A.** 1570 nM

**Q.** What about the TGI (IGROV1 ovarian) of the same molecule?
**A.** 3650 nM

**Q.** And the GI50 (K-562 leukemia)?
**A.** 1280 nM

**Q.** And the TGI (K-562 leukemia)?
**A.** 10700 nM

**Q.** And the GI50 (KM12 colon)?
**A.** 1380 nM

**Q.** What about the TGI (KM12 colon) of the same molecule?
**A.** 3110 nM

**Q.** What about the GI50 (M14 melanoma) of the same molecule?
**A.** 2170 nM

**Q.** And the TGI (M14 melanoma)?
**A.** 4970 nM

**Q.** What about the GI50 (MALME-3M melanoma) of the same molecule?
**A.** 1620 nM

**Q.** What about the TGI (MALME-3M melanoma) of the same molecule?
**A.** 3450 nM

**Q.** And the GI50 (MCF7 breast)?
**A.** 417 nM

**Q.** What about the TGI (MCF7 breast) of the same molecule?
**A.** 1760 nM

**Q.** What about the GI50 (MDA-MB-231 breast) of the same molecule?
**A.** 2000 nM

**Q.** What about the TGI (MDA-MB-231 breast) of the same molecule?
**A.** 6630 nM

**Q.** What about the GI50 (MDA-MB-435) of the same molecule?
**A.** 1840 nM

**Q.** What about the TGI (MDA-MB-435) of the same molecule?
**A.** 3880 nM

**Q.** What about the GI50 (MOLT-4 leukemia) of the same molecule?
**A.** 2670 nM

**Q.** And the TGI (MOLT-4 leukemia)?
**A.** 8000 nM

**Q.** What about the GI50 (NCI-H23 lung) of the same molecule?
**A.** 2470 nM

**Q.** And the TGI (NCI-H23 lung)?
**A.** 6330 nM

**Q.** And the GI50 (NCI-H460 lung)?
**A.** 1640 nM

**Q.** And the TGI (NCI-H460 lung)?
**A.** 4340 nM

**Q.** What about the GI50 (NCI-H522 lung) of the same molecule?
**A.** 410 nM

**Q.** And the TGI (NCI-H522 lung)?
**A.** 1390 nM

**Q.** And the GI50 (NCI/ADR-RES ovarian)?
**A.** 3440 nM

**Q.** And the TGI (NCI/ADR-RES ovarian)?
**A.** 24800 nM

**Q.** And the GI50 (OVCAR-3 ovarian)?
**A.** 1190 nM

**Q.** And the TGI (OVCAR-3 ovarian)?
**A.** 2470 nM

**Q.** And the GI50 (OVCAR-4 ovarian)?
**A.** 509 nM

**Q.** And the TGI (OVCAR-4 ovarian)?
**A.** 3870 nM

**Q.** What about the GI50 (OVCAR-5 ovarian) of the same molecule?
**A.** 1650 nM

**Q.** What about the TGI (OVCAR-5 ovarian) of the same molecule?
**A.** 4090 nM

**Q.** What about the GI50 (OVCAR-8 ovarian) of the same molecule?
**A.** 2160 nM

**Q.** What about the TGI (OVCAR-8 ovarian) of the same molecule?
**A.** 10400 nM

**Q.** What about the GI50 (PC-3 prostate) of the same molecule?
**A.** 1450 nM

**Q.** What about the TGI (PC-3 prostate) of the same molecule?
**A.** 3460 nM

**Q.** What about the GI50 (RPMI-8226 leukemia) of the same molecule?
**A.** 320 nM

**Q.** What about the TGI (RPMI-8226 leukemia) of the same molecule?
**A.** 1330 nM

**Q.** What about the GI50 (RXF 393 renal) of the same molecule?
**A.** 1390 nM

**Q.** What about the TGI (RXF 393 renal) of the same molecule?
**A.** 2940 nM

**Q.** And the GI50 (SF-268 CNS)?
**A.** 1940 nM

**Q.** What about the TGI (SF-268 CNS) of the same molecule?
**A.** 4830 nM

**Q.** What about the GI50 (SF-295 CNS) of the same molecule?
**A.** 2080 nM

**Q.** What about the TGI (SF-295 CNS) of the same molecule?
**A.** 5370 nM

**Q.** What about the GI50 (SF-539 CNS) of the same molecule?
**A.** 1270 nM

**Q.** And the TGI (SF-539 CNS)?
**A.** 2610 nM

**Q.** And the GI50 (SK-MEL-28 melanoma)?
**A.** 1650 nM

**Q.** What about the TGI (SK-MEL-28 melanoma) of the same molecule?
**A.** 3070 nM

**Q.** What about the GI50 (SK-MEL-5 melanoma) of the same molecule?
**A.** 1770 nM

**Q.** And the TGI (SK-MEL-5 melanoma)?
**A.** 3720 nM

**Q.** What about the GI50 (SK-OV-3 ovarian) of the same molecule?
**A.** 5560 nM

**Q.** And the TGI (SK-OV-3 ovarian)?
**A.** 17100 nM

**Q.** What about the GI50 (SN12C renal) of the same molecule?
**A.** 1640 nM

**Q.** And the TGI (SN12C renal)?
**A.** 3780 nM

**Q.** And the GI50 (SNB-19 CNS)?
**A.** 1880 nM

**Q.** What about the TGI (SNB-19 CNS) of the same molecule?
**A.** 5280 nM

**Q.** And the GI50 (SNB-75 CNS)?
**A.** 1550 nM

**Q.** What about the TGI (SNB-75 CNS) of the same molecule?
**A.** 3840 nM

**Q.** And the GI50 (SR leukemia)?
**A.** 677 nM

**Q.** And the TGI (SR leukemia)?
**A.** 3740 nM

**Q.** What about the GI50 (SW-620 colon) of the same molecule?
**A.** 1350 nM

**Q.** And the TGI (SW-620 colon)?
**A.** 3590 nM

**Q.** And the GI50 (T-47D breast)?
**A.** 1600 nM

**Q.** And the TGI (T-47D breast)?
**A.** 5150 nM

**Q.** What about the GI50 (TK-10 renal) of the same molecule?
**A.** 2110 nM

**Q.** What about the TGI (TK-10 renal) of the same molecule?
**A.** 4310 nM

**Q.** And the GI50 (U251 CNS)?
**A.** 1110 nM

**Q.** What about the TGI (U251 CNS) of the same molecule?
**A.** 2340 nM

**Q.** And the GI50 (UACC-257 melanoma)?
**A.** 1730 nM

**Q.** What about the TGI (UACC-257 melanoma) of the same molecule?
**A.** 3650 nM

**Q.** What about the GI50 (UACC-62 melanoma) of the same molecule?
**A.** 1650 nM

**Q.** What about the TGI (UACC-62 melanoma) of the same molecule?
**A.** 3350 nM

**Q.** And the GI50 (UO-31 renal)?
**A.** 1170 nM

**Q.** And the TGI (UO-31 renal)?
**A.** 2440 nM
